Laboratory results published in publication PMC4596527 (Bioorganic & medicinal chemistry, 2010).
Marks after values point to notes of the source that are not given here.

Tests used:
myocite = conditions: exposure to hypoxantine and xantine oxidase; cited from earlier work
[1] = tested on: Langendorff-perfused heart; conditions: attributed to activation of Akt and ERK1/2 pathways; cited from earlier work
[2] = tested on: Chinese hamster ovary (CHO) cells; assay: MTT cell viability, protection against H2O2-mediated cytotoxicity in CHO cells; conditions: for Cytotoxicity CHO (%): 50 μM compound for 2 h, then 1mM H2O2 for 1 h, MTT
reperfused myocardium = conditions: in vivo I/R injury; cited from earlier work
[3] = Superoxide radical scavenging by EPR spin trapping; conditions: PBS pH 7.4
[4] = tested on: human aortic vascular smooth muscle cells (HSMCs); assay: MTT cell viability, protection against H2O2-mediated cytotoxicity in HSMC cells; conditions: 50 μM compound for 2 h, then 1mM H2O2 for 1 h
[5] = 1-mM compound in presence of 1-mM DEPMPO
[6] = 100-μM compound in presence of 1-mM DEPMPO

Compound | protection of CHO cells against H2O2 compared with verapamil (in words) [2] | Superoxide Scavenging (%) [3, 5] | Cytotoxicity CHO (%) [2] [%] | Cytotoxicity HSMC (%) [4] [%] | other results
COc1ccc(CCN(C)CCCC(C#N)(c2ccc(OC)c(OC)c2)C(C)C)cc1OC (stereo not shown) [Compound 1, verapamil] | – | – | – | – | myocite viability (myocite): preserved; oxidative damage during ischemia and reperfusion [1]: decreased oxidative damage
COc1ccc(CCN(C)CCCC(CNC(=O)C2=CC(C)(C)N(O)C2(C)C)(c2ccc(OC)c(OC)c2)C(C)C)cc1OC.Cl (stereo not shown) [Compound 12B] | good protection | – | – | – | –
COc1ccc(CCN(C)CCCC(CNC(=O)C2=CC(C)(C)N(O)C(C)(C)C2)(c2ccc(OC)c(OC)c2)C(C)C)cc1OC.Cl (stereo not shown) [Compound 16B] | good protection | – | – | – | Akt and Bcl-2 levels in reperfused myocardium (reperfused myocardium): enhanced; nitric oxide generation in reperfused myocardium (reperfused myocardium): increased; superoxide production in reperfused myocardium (reperfused myocardium): markedly attenuated
COc1ccc(CCN(C)CCCC(CNC(=O)C2CC(C)(C)N(O)C(C)(C)C2)(c2ccc(OC)c(OC)c2)C(C)C)cc1OC.Cl (stereo not shown) [Compound 17B] | good protection | – | – | – | –
COc1ccc(CCN(CCCC(C#N)(c2ccc(OC)c(OC)c2)C(C)C)CC2=CC(C)(C)NC2(C)C)cc1OC (stereo not shown) [Compound 23A, 2-(3,4-Dimethoxyphenyl)-5-[[2-(3,4-dimethoxyphenyl)ethyl]-(2,2,5,5-tetramethyl-2,5-dihydro-1H-pyrrol-3-ylmethyl)-amino]-2-isopropyl-pentanenitrile] | – | 70.6 ± 3.3 ^a % | 74.0 ± 3.4 | 64.8 ± 7.1 | –
COc1ccc(CCN(CCCC(C#N)(c2ccc(OC)c(OC)c2)C(C)C)CC2=CC(C)(C)N(O)C2(C)C)cc1OC.Cl (stereo not shown) [Compound 23B, 2-(3,4-Dimethoxyphenyl)-5-[[2-(3,4-dimethoxyphenyl)ethyl]-(1-hydroxy-2,2,5,5-tetramethyl-2,5-dihydro-1H-pyrrol-3-ylmethyl)-amino]-2-isopropyl-pentanenitrile HCl Salt] | – | 100% | 66.7 ± 3.0 | 58.6 ± 4.8 | Superoxide Scavenging (%) [3, 6]: 78.1±2.6%
COc1ccc(CCN(CCCC(C#N)(c2ccc(OC)c(OC)c2)C(C)C)CC2=CC(C)(C)NC(C)(C)C2)cc1OC (stereo not shown) [Compound 24A, 2-(3,4-Dimethoxyphenyl)-5-[[2-(3,4-dimethoxyphenyl)ethyl]-(2,2,6,6-tetramethyl-1,2,3,6-tetrahydropyridin-4-ylmethyl)amino]-2-isopropyl-pentanenitrile] | – | 68.2 ± 7.6 ^a % | 95.3 ± 0.5 | 91.1 ± 0.5 | –
COc1ccc(CCN(CCCC(C#N)(c2ccc(OC)c(OC)c2)C(C)C)CC2=CC(C)(C)N(O)C(C)(C)C2)cc1OC.Cl (stereo not shown) [Compound 24B, 2-(3,4-Dimethoxyphenyl)-5-[[2-(3,4-dimethoxyphenyl)ethyl]-(1-hydroxy-2,2,6,6-tetramethyl-1,2,3,6-tetrahydropyridin-4-ylmethyl)amino]-2-isopropyl-pentanenitrile HCl Salt] | – | 100% | 64.8 ± 5.6 | 57.2 ± 5.4 | Superoxide Scavenging (%) [3, 6]: 82.5±2.7%
[4-Cyano-4-(3,4-dimethoxyphenyl)-5-methylhexyl]-[2-(3,4-dimethoxyphenyl)ethyl]-(1-oxyl-2,2,5,5-tetramethyl-2,5-dihydro-1H-pyrrol-3-ylmethyl)methylammonium Iodide Salt Radical [Compound 25] | good protection | 73.8 ± 3.0 ^a % | – | – | –
[4-Cyano-4-(3,4-dimethoxyphenyl)-5-methylhexyl]-[2-(3,4-dimethoxyphenyl)ethyl]-(1-oxyl-2,2,6,6-tetramethyl-1,2,3,6-tetrahydropyridin-4-ylmethyl)methylammonium Iodide Salt Radical [Compound 26] | – | 48.1 ± 2.7 ^a % | – | – | –
